Source: PubChem BioAssay (NCI)
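Cultured in 96-well plates, cells were exposed to test compound for 48 hours across five concentrations. TGI denotes the concentration required for complete inhibition of growth.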

Tests used:
Assay in all cases: inhibition of tumour cell growth, NCI panel, 48 h
SF-295 CNS = system: SF-295 CNS
OVCAR-5 ovarian = system: OVCAR-5 ovarian
K-562 leukemia = system: K-562 leukemia
HS 578T breast = system: HS 578T breast
SNB-19 CNS = system: SNB-19 CNS
UACC-257 melanoma = system: UACC-257 melanoma
786-0 renal = system: 786-0 renal
SK-MEL-2 melanoma = system: SK-MEL-2 melanoma
SW-620 colon = system: SW-620 colon
HCC-2998 colon = system: HCC-2998 colon
SNB-75 CNS = system: SNB-75 CNS
SN12C renal = system: SN12C renal
ACHN renal = system: ACHN renal
OVCAR-3 ovarian = system: OVCAR-3 ovarian
NCI-H23 lung = system: NCI-H23 lung
RPMI-8226 leukemia = system: RPMI-8226 leukemia
A549 NSCLC = system: A549 NSCLC
HOP-62 NSCLC = system: HOP-62 NSCLC
SK-OV-3 ovarian = system: SK-OV-3 ovarian
NCI-H226 lung = system: NCI-H226 lung
SK-MEL-28 melanoma = system: SK-MEL-28 melanoma
HL-60(TB) leukemia = system: HL-60(TB) leukemia
RXF 393 renal = system: RXF 393 renal
SF-539 CNS = system: SF-539 CNS
KM12 colon = system: KM12 colon
MDA-MB-231 breast = system: MDA-MB-231 breast
LOX IMVI melanoma = system: LOX IMVI melanoma
CAKI-1 renal = system: CAKI-1 renal
OVCAR-8 ovarian = system: OVCAR-8 ovarian
M14 melanoma = system: M14 melanoma
EKVX NSCLC = system: EKVX NSCLC
MALME-3M melanoma = system: MALME-3M melanoma
CCRF-CEM leukemia = system: CCRF-CEM leukemia
SR leukemia = system: SR leukemia
HCT-116 colon = system: HCT-116 colon
OVCAR-4 ovarian = system: OVCAR-4 ovarian
NCI-H522 lung = system: NCI-H522 lung
IGROV1 ovarian = system: IGROV1 ovarian
UO-31 renal = system: UO-31 renal
MOLT-4 leukemia = system: MOLT-4 leukemia
MDA-MB-435 = system: MDA-MB-435
BT-549 breast = system: BT-549 breast
HCT-15 colon = system: HCT-15 colon
HT29 colon = system: HT29 colon
MCF7 breast = system: MCF7 breast
UACC-62 melanoma = system: UACC-62 melanoma
NCI-H460 lung = system: NCI-H460 lung
T-47D breast = system: T-47D breast
PC-3 prostate = system: PC-3 prostate
NCI/ADR-RES ovarian = system: NCI/ADR-RES ovarian
SF-268 CNS = system: SF-268 CNS
COLO 205 colon = system: COLO 205 colon
DU-145 prostate = system: DU-145 prostate
U251 CNS = system: U251 CNS
TK-10 renal = system: TK-10 renal

O=C(C(Cl)Cl)N(O)c1ccccc1OCc1ccccc1
TGI (SF-295 CNS): > 100 µM | TGI (OVCAR-5 ovarian): > 100 µM | TGI (K-562 leukemia): > 100 µM | TGI (HS 578T breast): 61.7 µM | TGI (SNB-19 CNS): > 100 µM | TGI (UACC-257 melanoma): 63.9 µM | TGI (786-0 renal): > 100 µM | TGI (SK-MEL-2 melanoma): > 100 µM | TGI (SW-620 colon): 68.1 µM | TGI (HCC-2998 colon): 6.89 µM | TGI (SNB-75 CNS): > 100 µM | TGI (SN12C renal): > 100 µM | TGI (ACHN renal): > 100 µM | TGI (OVCAR-3 ovarian): > 100 µM | TGI (NCI-H23 lung): > 100 µM | TGI (RPMI-8226 leukemia): 69.2 µM | TGI (A549 NSCLC): > 100 µM | TGI (HOP-62 NSCLC): > 100 µM | TGI (SK-OV-3 ovarian): > 100 µM | TGI (NCI-H226 lung): > 100 µM | TGI (SK-MEL-28 melanoma): > 100 µM | TGI (HL-60(TB) leukemia): > 100 µM | TGI (RXF 393 renal): > 100 µM | TGI (SF-539 CNS): > 100 µM | TGI (KM12 colon): > 100 µM | TGI (MDA-MB-231 breast): > 100 µM | TGI (LOX IMVI melanoma): > 100 µM | TGI (CAKI-1 renal): > 100 µM | TGI (OVCAR-8 ovarian): 63.5 µM | TGI (M14 melanoma): > 100 µM | TGI (EKVX NSCLC): 48.8 µM | TGI (MALME-3M melanoma): > 100 µM | TGI (CCRF-CEM leukemia): 39 µM | TGI (SR leukemia): > 100 µM | TGI (HCT-116 colon): > 100 µM | TGI (OVCAR-4 ovarian): 78.9 µM | TGI (NCI-H522 lung): 82.4 µM | TGI (IGROV1 ovarian): > 100 µM | TGI (UO-31 renal): > 100 µM | TGI (MOLT-4 leukemia): > 100 µM | TGI (MDA-MB-435): > 100 µM | TGI (BT-549 breast): 1.43 µM | TGI (HCT-15 colon): > 100 µM | TGI (HT29 colon): > 100 µM | TGI (MCF7 breast): > 100 µM | TGI (UACC-62 melanoma): 92.2 µM | TGI (NCI-H460 lung): > 100 µM | TGI (T-47D breast): 51.8 µM | TGI (PC-3 prostate): > 100 µM | TGI (NCI/ADR-RES ovarian): > 100 µM | TGI (SF-268 CNS): > 100 µM | TGI (COLO 205 colon): 68 µM | TGI (DU-145 prostate): 45.5 µM | TGI (U251 CNS): > 100 µM | TGI (TK-10 renal): > 100 µM
